Consider 1 compound from US10485814B2, “Nicotinamide riboside analogs and pharmaceutical compositions and uses thereof” (GlaxoSmithKline Intellectual Property (No. 2) Limited, priority 2014, dated 2019).

Entries after “also recorded” stand apart in the source; their conditions may differ.

In assay [1] the test system is Reconstructed human epidermis (EpiDerm, EPI-200). The assay can be described thus: UVB-induced inflammation mediators in reconstructed epidermal equivalents. The class given is cell-based. The following applies: topical 1 hr pre-treatment, NRH 0.1% or niacinamide 3%; UVB 150 mJ/cm^2; media 6 hr post irradiation. The source says: Solar Ultraviolet (UV) light exposure on skin causes photoaging, sunburn, DNA damages and carcinogenesis. UV radiation (UVR) also results in inflammation, which can be measured in vitro by pro-inflammatory mediators, e.g., TNF-α, IL-8. The in vitro reconstructed human epidermis (RHE) model is used to evaluate the anti-inflammatory effect of NRH.
Reconstructed human epidermis (EpiDerm, EPI-200, made of normal human epidermal keratinocytes, MatTek, Ashland, Mass.), were placed into media (EPI-100-ASY, 1.0 ml/well of 6-well plates) and incubated overnight at 37° C./5% CO2. The media was replenished with fresh culture media prior to study. NRH at 0.1% and niacinamide at 3% in vehicle (50% H2O/35% ethanol/15% propylene glycol, v/v/v) were applied topically at 6 μl and then gently spread onto the skin equivalents (˜20 rotations) using the rubber side of a plunger of 1 ml syringe. Vehicle was served as an untreated control. After 1 hr pre-treatment with NRH, niacinamide, or vehicle control, the EpiDerm tissues were transferred to a sterile 6-well plate containing 1 ml of DPBS per well and then exposed to UVB at 150 mJ/cm^2. The Newport Solar Simulator System (Power unit 69920, and Lamp 91192-1000, Newport Corporate, Irvine, Calif.) was used as the UVB emitter to achieve a UVB irradiation of 150 mJ/cm^2. Measurement of the irradiation was taken using an ILT-1400 Handheld, Portable Radiometer/Photometer (International Light Technologies, Inc., Peabody, Mass.) with a UVB detector (SEL240/T2ACT5, 235-307 nm, International Light Technologies, Inc.). After UVB irradiation, EpiDerm tissues were transferred back to the 6-well plate containing media and incubated at 37° C./5% CO2 for 6 hours. At the end of the incubation (6 hr post UVB irradiation), culture media were collected for the measurement of IL-8, and TNF-α concentration by MagPix (Millipore, HCYTOMAG-60K).

In assay [2] the test system is HaCaT cells (a human keratinocyte cell line). As to the kind of experiment: Intracellular NAD measurement in HaCaT cells (ADPR cyclase enzymatic assay, absorbance 405 nm). The class given is cell-based. The method, then:
HaCaT cells (AddexBio Technologies, San Diego, Calif., Passage 16-19) were grown in Medium DMEM/GlutMax (Life technologies, Grand Island, N.Y.) supplemented with 10% FBS (Life technologies) and Non-essential amino acids (NEAA, Life technologies) and then seeded in 12-well plates (Corning, Tewksbury, Mass.) with a density at 2×10^5 cells per well and 2 ml of culture medium in each well for overnight.
Stock solution of dihydronicotinamide riboside (NRH, GSK3008320A, GSK, RTP, NC) was prepared in ethanol at 100 mM (25.6 mg/ml) and stored at −20° C. Cells were treated with different concentrations of NRH for 3 hrs, washed twice with PBS containing 5 mM EDTA, and then subject to Nicotinamide adenine dinucleotide (NAD) measurement. In brief, acetonitrile (ACN) lysis buffer (Ammonium Acetate (50 mM) and 90% acetonitrile) was added to each well (200 μl/well) to lyse the cells at RT for 5-10 mins by gently rotating on a culture plate shaker at a low speed. Enzyme master mix (300 μM of 5-Amino-(3,4′-bipyridin)-6(1H)-one (Inamrinone) (Sigma-Aldrich), a substrate for ADP ribosyl cyclase (ADPR cyclase)) and 30 nM ADPR Cyclase (Sigma, St. Louis, Mo.), 7.5 μM of N-(2-fluoro-4-(methylsulfonyl)phenyl)-2-methyl-6-(thiazol-5-yl)isonicotinamide (a CD38 inhibitor) in 75 mM HEPES pH7 buffer (Life Technologies)) was added to the lysed cells (400 μl of enzyme master mix/well). Enzymatic reaction was incubated at RT for ˜30 min. At the end of incubation, the supernatant (200 μl) of the reaction solution from each well was transferred to each well of a 96-well plate and absorbance was read twice in the 96-well plate at 405 nm using a plate reader (Spectra Maxplus, Molecular Devices, Sunnyvale, Calif.). A mixture of enzyme master mix and ACN extraction solution at 2:1 ratio was used as a blank reference. NAD (Sigma) was used as a positive control.
HaCaT cells were grown as described in example 23 in the regular cell culture DMEM medium as described earlier or in the Epilife medium without nacinamide (Life Technologies). Cells were treated with different concentrations of NRH or niacinamide (NIA, DSM nutritional products) for 3 hrs, washed twice with PBS containing 5 mM EDTA, and then subject to Nicotinamide adenine dinucleotide (NAD) measurement as described in example 23. A mixture of enzyme master mix and ACN extraction solution at 2:1 ratio for a blank reference. NAD (Sigma) was used as a positive control. […] Both the CD38 inhibitor and Niacinamide increased NAD in the HaCaT cells cultured in the Vit B3 depleted culture medium, and the induction of NAD by niacinamide was dose-dependent (solid bars). However, the induction of NAD by niacinamide (highest at ˜1.5 fold) was low compared to those by NRH. Therefore, NRH is a stronger NAD inducer compared to a CD38 inhibitor or Niacinamide.
HaCaT cells were grown in regular culture media as described in example 1 and seeded in 12-well plates with density at 2×10^5 cells per well and 1 ml of culture medium in each well. NRH stock solution was prepared in ethanol at 100 mM (25.6 mg/ml) and stored at −20° C. Stock solutions of NRH esters were made at 50 mM in DMSO (see FIG. 9B for compound info). Cells were treated with NRH esters and NRH at 150 μM for 6 and 16 hrs, washed twice with PB S containing 5 mM EDTA, and then subject to Nicotinamide adenine dinucleotide (NAD) measurement as described in example 23.
HaCaT cells were grown in regular culture media as described above and seeded in 12-well plates with density at 2×10^5 cells per well and 1 ml of culture medium in each well. NRH stock solution was prepared in ethanol at 100 mM (25.6 mg/ml) and stored at −20° C. NRH (200 μM) was used as a positive control. Because of the possible solubility issue related to NRH monoC16, fatty acid-free bovine serum albumin (defatted BSA, Sigma) was used as a carrier for the compound. NRH monoC16 stock solution (100×) was complexed with defatted BSA ([…]) prior to the treatment, resulting in a NRH monoC16 stock solution (10 ×). […]

In the case of `NC(=O)C1=CN([C@@H]2O[C@H](CO)[C@@H](O)[C@H]2O)C=CC1` [NRH, dihydronicotinamide riboside], in assay [1], the “UVB-induced IL-8” value was “inhibited; also recorded: reduces” and the “UVB-induced TNF-α” value is given as “inhibited; also recorded: reduces”. Besides, the NAD levels elevation in assay [2] (HaCaT in DMEM medium with Vit B3, 450 μM, 3 hrs) is reported as approximately 6 fold. Moreover, the NAD level result in assay [2] (HaCaT keratinocytes, different concentrations, 3 hrs, absorbance at 405 nm) was “dose-dependently increases NAD; also recorded: dose-dependently increases NAD^+”. The NAD boosting activity entry in assay [2] (HaCaT, 150 μM, 6 and 16 hrs) was “consistently showed strong activity on NAD elevation”.
